Reference: patent publication US11185593B2, “Alkylating agent for alkylating target with driver oncogene mutation” (Chiba Prefecture, priority 2013, dated 2021)

Legend:
[1] = tested on: gene sequence of the codon 12 mutation of the KRAS gene; assay: Confirmation of alkylation of KRAS codon 12 mutation sequence, high resolution gel electrophoresis; type: biochemical; conditions: 23° C., 17 hours
Description: A 25 μM pair of two fragments (5′-[…]-3′ (SEQ ID NO: 1) and 3′-[…]-5′ (SEQ ID NO: 2)) (final volume: 50 μL) was annealed to obtain a DNA fragment. The annealed fragment was ligated to a pGEM-T easy vector manufactured by […]. Thereafter, Escherichia coli (JM109) competent cells manufactured by Promega were transformed with the obtained product, and the resulting cells were then cultured at 37° C. overnight in a plate comprising an LB medium containing 100 μg/mL ampicillin. A transformed white colony of interest was identified by colony direct PCR using a 500 nM primer set (T7: 5′-TAATACGACTCACTATAGG-3′ (SEQ ID NO: 3); and sp6: 5′-[…]-3′ (SEQ ID NO: 4)) and 10 μL of a reaction solution containing 1 U GoTaq® Green Master Mix manufactured by Promega. The following amplification cycle was applied. […]
A DNA fragment, 213 base pairs in length, the 5′-terminus of which had been labeled with Texas Red, was synthesized using the above-described plasmid and primers (sp6: 5′-ATTTAGGTGACACTATAG-3′ (SEQ ID NO: 5), and T7: 5′-[…]-3′ (SEQ ID NO: 6), with 5′-terminus labeled with Texas Red). The obtained DNA fragment, the 5′-terminus of which had been labeled with Texas Red, was purified using PCR-Clean Up Kit manufactured by Sigma, and the concentration was then determined by UV absorption. […]

Caco-2 = assay: Cytotoxicity test, WST-8 (cell counting kit-8), 48 hours; type: cell-based; conditions: Homo sapiens, Caco-2, KRAS wild type, read-out: KR12 IC50
Description: (§1) Using colon cancer and pancreatic cancer cell lines, the cells were seeded in each well of a 96-well microplate, resulting in a cell density of 3000 to 5000 cells/well, and they were then cultured overnight. On the following day, the cells of each type were treated with KR12 recognizing a codon 12 mutation in concentrations of 1 nM, 10 nM, 30 nM, 100 nM, 300 nM, and 1 μM for 48 hours. Thereafter, a WST-8 reagent was added to each well, using cell counting kit-8, and the obtained mixture was then reacted for 2 hours. After that, the number of cells was counted at a wavelength of 450 nm according to a colorimetric analysis method using a microplate reader. The method of counting the number of cells comprises: 1) obtaining the mean value of the medium alone, 2) subtracting the mean value of the medium from each well, 3) obtaining the mean value of DMSO, 4) dividing the medium-subtracted value by the mean value of DMSO and then multiplying by 100, 5) obtaining the mean value of each treatment group and a standard deviation, and then preparing a graph. The calculation formula of IC50 is the following: IC50=10 (LOG (A/B)×(50−C)/(D−C)+LOG (B)), wherein A: a higher concentration of two concentrations sandwiching 50%, B: a lower concentration of two concentrations sandwiching 50%, C: inhibitory percentage at B, and D: inhibitory percentage at A.
(§2) The cells used in the aforementioned experiment are human cancer cell lines SW480, SW620, SNU-C2B, LS180, SW1463, DLD-1, HT29, and Caco-2 (purchased from European Collection of Cell Cultures (ECACC)).

SW1463 = assay: as above; type: cell-based; conditions: SW1463, KRAS G12C Homo, read-out: KR12 IC50
Description: as §1, §2

SW620 = assay: as above; type: cell-based; conditions: SW-620, SW620, KRAS G12V Homo, read-out: KR12 IC50
Description: as §1, §2

DLD-1 = assay: as above; type: cell-based; conditions: Homo sapiens, DLD-1, KRAS G13D Hetero, read-out: KR12 IC50
Description: as §1, §2

HT-29 = assay: as above; type: cell-based; conditions: Homo sapiens, HT-29, KRAS wild type, read-out: KR12 IC50
Description: as §1, §2

SW480 = assay: as above; type: cell-based; conditions: SW480, KRAS G12V Homo, read-out: KR12 IC50
Description: as §1, §2

SNU-C2B = assay: as above; type: cell-based; conditions: Homo sapiens, KRAS G12D Hetero, read-out: KR12 IC50
Description: as §1, §2

K375 = assay: as above; type: cell-based; conditions: K375, KRAS G12D Hetero, read-out: KR12 IC50
Description: as §1

PANC-1 = assay: as above; type: cell-based; conditions: Homo sapiens, PANC-1, KRAS G12D Hetero, read-out: KR12 IC50
Description: as §1

For `CC(=O)Nc1cn(C)c(C(=O)Nc2cc(C(=O)NCCC(=O)Nc3cn(C)c(C(=O)Nc4cn(C)c(C(=O)Nc5cc(C(=O)Nc6cn(C)c(C(=O)NCCCC(=O)Nc7cc(C(=O)Nc8cn(C)c(C(=O)NCCC(=O)Nc9cc(C(=O)Nc%10cc(C(=O)Nc%11ccc%12[nH]c(C(=O)N%13CC(CCl)c%14c%13cc(O)c%13ccccc%14%13)cc%12c%11)n(C)c%10)n(C)c9)n8)n(C)c7)n6)n(C)c5)n4)n3)n(C)c2)n1` (centres unmarked) [KR12], the “alkylation of the gene sequence of the codon 12 mutation of the KRAS gene” value ([1]; mutated KRAS sequence of AsPC-1 cells (G12D), FIG. 7B) was “specifically induced concentration-dependent alkylation”, the “alkylation of the gene sequence of the codon 12 mutation of the KRAS gene” value ([1]; mutated KRAS sequence of SW480 cells (G12V), FIG. 7A) was “specifically induced concentration-dependent alkylation” and the IC50 (Caco-2) was 105 nM. It also gave an IC50 (SW1463) of 178 nM, an IC50 (SW620) of 17 nM and an IC50 (DLD-1) of 153 nM. The IC50 (HT-29) was 102 nM, the IC50 (SW480) was 31 nM and the IC50 (SNU-C2B) was 57 nM. For the same compound, the IC50 (K375) was 78 nM and the IC50 (PANC-1) was 81 nM.
